Series [1] concerns inducible nitric oxide synthase (iNOS). The experiment in a line: In vivo iNOS mRNA expression (quantitative PCR). The arrangement: species or system Swiss Webster male mice. The following applies: mice, FIG. 10A. Here is the method: To determine gene induction patterns over time, twenty four Swiss Webster male mice (30-32 g) were obtained from Simonsen, Inc. and treated by oral gavage with a 4 ml/kg volume of either 0.5% carboxymethyl cellulose (CMC; Sigma-Aldrich, St. Louis Mo.) (0 mg/kg/day) or […] compound B (25 mg/ml in 0.5% CMC) (100 mg/kg). At 4, 8, 16, 24, 48, or 72 hours after the final dose, animals were anesthetized with isoflurane. The mice were then sacrificed and tissue samples of kidney, liver, brain, lung, and heart were isolated and stored in RNALATER solution (Ambion) at −80° C.
To investigate the dose response of compounds of the present invention, twelve Swiss Webster male mice (30-32 g) (obtained from Simonsen, Inc., Gilroy Calif.) were treated by oral gavage once per day for 4 days with a 4 ml/kg volume of either 0.5% carboxymethyl cellulose (CMC; Sigma-Aldrich, St. Louis Mo.), compound D (25 mg/ml in 0.5% CMC) (100 mg/kg/day), or compound B (7.5 and 25 mg/ml in 0.5% CMC) (30 and 100 mg/kg/day, respectively). Four hours after the final dose, animals were anesthetized, sacrificed, and approximately 150 mg of liver and each kidney were isolated and stored in RNALATER solution (Ambion) at −20° C.
Hypertension is a risk factor for diabetes and disorders and diseases associated with diabetes. The effects of compounds of the present invention on regulation of blood pressure were examined as follows. Animals were treated with compound B or compound D and RNA samples were prepared as described above in Example 4. […] Analysis of the relative level of gene expression was performed by quantitative PCR using a FASTSTART DNA MASTER SYBR GREEN I kit (Roche) and gene-specific primers, using a LIGHTCYCLER system (Roche), according to manufacturer's instructions. […]
The relative level of 18S ribosomal RNA gene expression was measured as a control. Quantitative PCR was performed using a QUANTITECT SYBR GREEN PCR kit (Qiagen) and gene-specific primers, using a LIGHTCYCLER system (Roche), according to manufacturer's instructions. […]

Series [2] can be described thus: Body weight gain, organ weight and visceral fat after 14 days oral dosing. It counts as in vivo, male Sprague Dawley rats. Here is the method: The effect of compounds of the present invention on weight loss and fat stores in animals was examined as follows. Fifty male Sprague Dawley rats (6-7 weeks old) obtained from Simonsen, Inc. were dosed with 0.5% CMC (Sigma-Aldrich) or compound B at 20, 60, 100, or 200 mg/kg body weight by oral gavage once daily for 14 consecutive days. Animals were monitored for changes in body weight and signs of overt toxicity and mortality. On day 15, following an overnight fast with water available ad libitum, animals were anesthetized with isoflurane. One whole blood sample of approximately 1 ml was collected into tubes containing EDTA for hematological analysis, and a second sample of approximately 1 ml was collected into a tube with no anticoagulant for serum chemistry analysis. Blood sample analyses were performed by IDEXX (West Sacramento, Calif.). Following blood collection, the diaphragm was incised and the animals were sacrificed. Macroscopic observations were recorded for each animal and the liver, kidneys, heart, spleen, lungs, stomach, small intestines, and large intestines were collected for histological assessment.

In the case of `O=C(O)CNC(=O)c1nc(Cl)c2ccccc2c1O` [compound B, [(1-Chloro4-hydroxy-isoquinoline-3-carbonyl)-amino]-acetic acid], the “dose dependence of iNOS induction” value in series [1] (30 and 100 mg/kg/day oral gavage) was “dose-dependent”. In addition, the “expression of the gene encoding iNOS” value in series [1] (oral gavage, within 8 hours following treatment, then returned to control levels, normalized to 18S rRNA) is “increased”. For the same compound, in series [2] (rats, 100 mg/kg, p=0.036, one-way ANOVA/Tukey's test), the “relative heart weight, expressed as a fraction of the total body weight, compared to control” value is “significantly increased”. The weight gain result in series [2] (rats, 20, 60, 100, or 200 mg/kg oral gavage once daily for 14 days, FIG. 7A) is “dose-dependent retardation”. In addition, the visceral fat result in series [2] (rats, 20 to 200 mg/kg oral gavage 14 days, FIG. 8) was “dose-dependent reduction”. The “visceral fat pads at higher doses” value in series [2] (rats, higher doses of compound, FIG. 8 bottom panel) is reported as “complete absence of fat pads”. Also, the “absolute heart weight compared to control” value in series [2] (rats, oral gavage 14 days, FIG. 7B) is recorded as “no statistically significant difference”.

Source of the values: patent publication US8124582B2, “Treatment of diabetes” (FibroGen, Inc., priority 2002, dated 2012).
